Results taken from patent publication US9877957B2, “Tetrahydroisoquinoline derivatives useful as inhibitors of diacylglyceride O-acyltransferase 2” (Merck Sharp & Dohme Corp., priority 2014, dated 2018).

Each compound was assayed against hDGAT2 (Homo sapiens (Human), UniProt Q96PD7) (assay: DGAT2 Enzymatic Activity Assay (triolein formation, LC/MS/MS)). Settings: Sf-9 membrane prep expressing hDGAT2; 25 μM diolein, 10 μM oleoyl-CoA; room temperature; read-out: IC50 values for inhibition of DGAT2.
Assay type: biochemical
Method: In Vitro DGAT2 ASSAYS and Determination of IC50 Values for DGAT2 Inhibitors
Insect Cell Expression and Membrane Preparation
Sf-9 insect cells were maintained in Grace's insect cell culture medium with 10% heated-inactivated fetal bovine serum, 1% Pluronic F-68 and 0.14 μg/ml Kanamycine sulfate in Erlenmeyer flasks at 28° C. in a shaker incubator. After infection with untagged hDGAT2 baculovirus at multiplicity of infection (MOI) 0.1 for 48 hours, cells were harvested. Cell pellets were suspended in buffer containing 10 mM Tris-HCl (pH 7.5), 1 mM EDTA (pH 8.0), 250 mM sucrose and Complete Protease Inhibitor Cocktail (Roche Diagnostics Corp., Indianapolis, Ill.), and sonicated on ice. Membrane fractions were isolated by ultracentrifugation (100,000× g pellet), resuspended in the same buffer, and frozen (−80° C.) for later use. The protein concentration was determined with the BCA Protein Assay kit (Pierce Biotechnology Inc., Rockford, Ill.). Expression of protein levels was analyzed by immunoblotting with goat polyclonal DGAT2 antibody C-15 and donkey anti-goat IgG HRP (Santa Cruz Biotechnology, Inc., Santa Cruz, Calif.) followed by detection with ECL reagent (GE Healthcare, Piscataway, N.J.).
LC/MS/MS analyses were performed using Thermal Fisher's LX4-TSQ Vantage system. This system consists of an Agilent binary high-performance liquid chromatography (HPLC) pumps and a TSQ Vantage triple quadrupole MS/MS instrument. For each sample, 2 μL samples from the top organic layer of in-plate liquid-liquid extraction were injected onto a Thermo Betabasic C4 column (2.1 mm×20 mm, 5 μm particle size). The samples were then eluted using the following conditions; mobile phase: methanol/water with 0.1% ammonium format=92/8 (v/v), flow rate: 1 mL/min, temperature: 25° C. Data was acquired in positive mode using a heated electrospray ionization (HESI) interface. The operational parameters for the TSQ Vantage MS/MS instrument were a spray voltage of 3000 V, capillary temperature of 280° C., vaporizer temperature 400° C., shealth gas 60 arbitrary unit, Aux gas 40 arbitrary units, S-lens 113 and collision gas 0.16 Pascals. […] (SRM) chromatograms of triolein (Q1: 902.9>Q3:602.3) and internal standard (Q1: 902.9>Q3:602.3) were collected for 40 sec. The peak area was integrated by Xcalibur Quan software. The ratio between the triolein generated in the reaction and spiked in internal standard were used to generate percentage inhibition and IC50 values. Compound percentage inhibition was calculated by the following formula: Inhibition %=1−[(compound response−low control)/(high control−low control)]×100%. Potent compounds were titrated and IC50 were calculated by 4 parameter sigmoidal curve fitting formula.
DGAT2 Enzymatic Activity Assay
DGAT2 activity was determined by measuring the amount of enzymatic product triolein (1,2,3-Tri(cis-9-octadecenoyl)glycerol) using the membrane prep mentioned above. The assay was carried out in deep well 384 plates in a final volume of 40 μL at room temperature. The assay mixture contained the following: assay buffer (100 mM Tris·Cl, pH 7.0, 20 mM MgCl2, 5% ethanol), 25 μM of diolein, 10 μM of oleoyl-CoA and 10 ng/μL of DGAT2 membrane.

hDGAT2, sequence (Q96PD7 whole entry): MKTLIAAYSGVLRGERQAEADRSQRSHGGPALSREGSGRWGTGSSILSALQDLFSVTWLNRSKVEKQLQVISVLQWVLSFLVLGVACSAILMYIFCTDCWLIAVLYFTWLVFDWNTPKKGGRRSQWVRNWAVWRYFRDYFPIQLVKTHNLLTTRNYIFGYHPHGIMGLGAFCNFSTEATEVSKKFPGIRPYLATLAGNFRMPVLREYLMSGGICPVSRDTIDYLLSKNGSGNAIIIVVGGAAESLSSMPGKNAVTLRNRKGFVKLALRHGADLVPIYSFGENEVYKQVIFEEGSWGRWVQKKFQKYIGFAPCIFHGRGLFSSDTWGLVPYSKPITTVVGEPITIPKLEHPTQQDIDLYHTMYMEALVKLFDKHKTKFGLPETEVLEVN

Row | Structure (SMILES) | IC50
1 | CC(C)(C)NC(=O)N1CCc2c(-c3cccc(C(F)(F)F)c3)ccc(C(=O)N[C@@H](CO)c3ccc(C(F)(F)F)nc3)c2C1 (racemic) [Example 21, (R/S)-N^2-(tert-butyl)-N^8-(2-hydroxy-1-(6-(trifluoromethyl)pyridin-3-yl)ethyl)-5-(3-(trifluoromethyl)phenyl)-3,4-dihydroisoquinoline-2,8(1H)-dicarboxamide] | 214 nM
2 | CC(C)(C)NC(=O)N1CCc2c(-c3cccc(C(F)(F)F)c3)ccc(C(=O)N[C@H]3C[C@@H]3c3ccccc3)c2C1 (relative stereo) [Example 65, N^2-(tert-butyl)-N^8-((trans)-2-phenylcyclopropyl)-5-(3-(trifluoromethyl)phenyl)-3,4-dihydroisoquinoline-2,8(1H)-dicarboxamide] | 1020 nM
3 | CC(C)(C)NC(=O)N1CCc2c(-c3cccc(C(F)(F)F)c3)ccc(C(=O)NC[C@H]3C[C@@H]3c3ccccc3)c2C1 (relative stereo) [Example 69, N^2-(tert-butyl)-N^8-(((trans)-2-phenylcyclopropyl)methyl)-5-(3-(trifluoromethyl)phenyl)-3,4-dihydroisoquinoline-2,8(1H)-dicarboxamide] | 528 nM
4 | COC(=O)c1cccc(-c2ccc(CNC(=O)C3CCN(c4ccc(C(F)(F)F)cc4)CC3)c3c2CCN(C(=O)NC(C)(C)C)C3)c1 [Example 1, methyl 3-(2-(tert-butylcarbamoyl)-8-((1-(4-(trifluoromethyl)phenyl)piperidine-4-carboxamido)methyl)-1,2,3,4-tetrahydroisoquinolin-5-yl)benzoate] | 1.75 nM
5 | CC(C)(C)NC(=O)N1CCc2c(-c3cccc(OC(F)(F)F)c3)ccc(CNC(=O)c3cc(C(F)(F)F)n[nH]3)c2C1 [Example 2, N-(tert-butyl)-5-(3-(trifluoromethoxy)phenyl)-8-((3-(trifluoromethyl)-1H-pyrazole-5-carboxamido)methyl)-3,4-dihydroisoquinoline-2(1H)-carboxamide] | 104 nM
6 | COC(=O)c1cccc(-c2ccc(CNC(=O)c3cc(C(C)(C)C)nn3C)c3c2CCN(C(=O)NC(C)(C)C)C3)c1 [Example 3, methyl 3-(8-((3-(tert-butyl)-1-methyl-1H-pyrazole-5-carboxamido)methyl)-2-(tert-butylcarbamoyl)-1,2,3,4-tetrahydroisoquinolin-5-yl)benzoate] | 17 nM
7 | COc1cccc(-c2ccc(CNC(=O)c3cc(C(F)(F)F)n[nH]3)c3c2CCN(C(=O)NC(C)(C)C)C3)c1 [Example 4, N-(tert-butyl)-5-(3-methoxyphenyl)-8-((3-(trifluoromethyl)-1H-pyrazole-5-carboxamido)methyl)-3,4-dihydroisoquinoline-2(1H)-carboxamide] | 41.4 nM
8 | COc1cccc(-c2ccc(CNC(=O)c3nccc4ccccc34)c3c2CCN(C(=O)NC(C)(C)C)C3)c1 [Example 5, N-((2-(tert-butylcarbamoyl)-5-(3-methoxyphenyl)-1,2,3,4-tetrahydroisoquinolin-8-yl)methyl)isoquinoline-1-carboxamide] | 135 nM
9 | CC(C)(C)NC(=O)N1CCc2c(-c3cccc(C(F)(F)F)c3)ccc(C(=O)NCCc3nc4cc(Cl)ccc4[nH]3)c2C1 [Example 6, N^2-(tert-butyl)-N^8-(2-(5-chloro-1H-benzo[d]imidazol-2-yl)ethyl)-5-(3-(trifluoromethyl)phenyl)-3,4-dihydroisoquinoline-2,8(1H)-dicarboxamide] | 11.9 nM
10 | CC(C)(C)NC(=O)N1CCc2c(-c3cccc(C(F)(F)F)c3)ccc(C(=O)NCCc3nc4cc(Cl)c(Cl)cc4[nH]3)c2C1 [Example 7, N^2-(tert-butyl)-N^8-(2-(5,6-dichloro-1H-benzo[d]imidazol-2-yl)ethyl)-5-(3-(trifluoromethyl)phenyl)-3,4-dihydroisoquinoline-2,8(1H)-dicarboxamide] | 15.9 nM
